Source: US7632844B2, “2-hydroxy-6-phenylphenanthridines as PDE-4 inhibitors” (Nycomed GmbH, priority 2002, dated 2009)

Columns and labels:
[1] = tested on: PDE4 (cytosol from human neutrophils); experiment: Inhibition of PDE4 activity, Method a ([3H]cAMP hydrolysis, cytosol from human neutrophils); format: biochemical; set-up: unit not given here; conditions: 0.5 μM cAMP, Motapizone 1 μM
Procedure: PDE4 activity was determined as described by Thompson et al. (Adv Cycl Nucl Res 10: 69-92, 1979) with some modifications (Bauer and Schwabe, Naunyn-Schmiedeberg's Arch Pharmacol 311: 193-198, 1980). At a final assay volume of 200 μl (96 well microtiter plates) the assay mixture contained 20 mM Tris (pH 7.4), 5 mM MgCl2, 0.5 μM cAMP, [^3H]cAMP (about 30,000 cpm/assay), the test compound and an aliquot of cytosol from human neutrophils which mainly contains PDE4 activity as described by Schudt et al. (Naunyn-Schmiedeberg's Arch Pharmacol 344: 682-690, 1991); the PDE3-specific inhibitor Motapizone (1 μM) was included to suppress PDE3 activity originating from contaminating platelets. Serial dilutions of the compounds were prepared in DMSO and further diluted 1:100 (v/v) in the assays to obtain the desired final concentrations of the inhibitors at a DMSO concentration of 1% (v/v) which by itself only slightly affected PDE4 activity.
After preincubation for 5 min at 37° C., the reaction was started by the addition of substrate (cAMP) and the assays were incubated for further 15 min at 37° C. 50 μl of 0.2 N HCl was added to stop the reaction and the assays were left on ice for about 10 min. Following incubation with 25 μg 5′-nucleotidase (Crotalus atrox snake venom) for 10 min at 37° C., the assays were loaded on QAE Sephadex A-25 (1 ml bed volume). The columns were eluted with 2 ml of 30 mM ammonium formiate (pH 6.0) and the eluate was counted for radioactivity. Results were corrected for blank values (measured in the presence of denatured protein) which were below 5% of total radioactivity. […] The IC50-values for the compounds according to the invention for the inhibition of the PDE4 activity were determined from the concentration-inhibition curves by nonlinear-regression.

| Structure (SMILES) | Inhibition of the PDE4 activity, −log IC50 [1] | melting point [°C] |
| --- | --- | --- |
| COc1cc2c(cc1OC)C1CC(O)CCC1N=C2c1ccc(OCC2CC2)c(OCC2CC2)c1 (racemic) [Compound 7, (±)-(2RS,4aRS,10bRS)-6-(3,4-Bis-cyclopropylmethoxyphenyl)-8,9-dimethoxy-(1,2,3,4,4a,10b)-hexahydrophenanthridin-2-ol] | 8.98 | 83 to 92 |
| COc1cc2c(cc1OC)C1CC(OC(C)=O)CCC1N=C2c1ccc([N+](=O)[O-])cc1 (racemic) [Compound 5, (±)-Acetic acid (2RS,4aRS,10bRS)-6-(4-nitrophenyl)-8,9-dimethoxy-(1,2,3,4,4a,10b)-hexahydrophenanthridin-2-yl ester] | 7.09 | 77 to 88 |
| COc1cc2c(cc1OC)C1CC(O)CCC1N=C2c1ccc(N(C)C)cc1 (racemic) [Compound 9, (±)-(2RS,4aRS,10bRS)-6-(4-Dimethylaminophenyl)-8,9-dimethoxy-(1,2,3,4,4a,10b)-hexahydrophenanthridin-2-ol] | 7.13 | 115 to 121 |
| COC(=O)c1ccc(C2=NC3CCC(O)CC3c3cc(OC)c(OC)cc32)cc1 (racemic) [Compound 8, (±)-(2RS,4aRS,10bRS)-6-(4-Methoxycarbonylphenyl)-8,9-dimethoxy-(1,2,3,4,4a,10b)-hexahydrophenanthridin-2-ol] | 9.21 | 94 to 105 |
| COc1cc2c(cc1OC)C1CC(O)CCC1N=C2c1ccc(OCC2CC2)c(OCC2CC2)c1 (racemic) [Compound 13, (±)-(2SR,4aRS, 10bRS)-6-(3,4-Bis-cyclopropylmethoxyphenyl)-8,9-dimethoxy-(1,2,3,4,4a,10b)-hexahydrophenanthridin-2-ol] | 8.12 | 114 to 118 |
| COc1cc2c(cc1OC)C1CC(O)CCC1N=C2c1ccc([N+](=O)[O-])cc1 (racemic) [Compound 11, (±)-(2RS,4aRS, 10bRS)-6-(4-Nitrophenyl)-8,9-dimethoxy-(1,2,3,4,4a,10b)-hexahydrophenanthridin-2-ol] | 9.11 | 178 to 181 |
| COc1cc2c(cc1OC)C1CC(O)CCC1N=C2c1ccc(C(=O)O)cc1 (racemic) [Compound 12, (±)-(2RS,4aRS,10bRS)-6-(4-Carboxyphenyl)-8,9-dimethoxy-(1,2,3,4,4a,10b)-hexahydro-phenanthridin-2-ol] | 8.25 | 172 to 183 |
| COc1ccc(C2=NC3CCC(O)CC3c3cc(OC)c(OC)cc32)cc1OC (racemic) [Compound 10, (±)-(2RS,4aRS,10bRS)-6-(3,4-Dimethoxyphenyl)-8,9-dimethoxy-(1,2,3,4,4a,10b)-hexahydrophenanthridin-2-ol] | 8.71 | 104 to 110 |
| COc1cc2c(cc1OC)C1CC(OC(C)=O)CCC1N=C2c1ccc(OCC2CC2)c(OCC2CC2)c1 (racemic) [Compound 6, (±)-Acetic acid (2SR,4aRS,10bRS)-6-(3,4-bis-cyclopropylmethoxyphenyl)-8,9-dimethoxy-(1,2,3,4,4a,10b)-hexahydrophenanthridin-2-yl ester] | 7.26 |  |
